Source: ChEMBL document CHEMBL2331402, “Salicylaldoxime derivatives as new leads for the development of carbonic anhydrase inhibitors” (Bioorg Med Chem, 2013)

Experiments:
Carbonic anhydrase 1 = Carbonic anhydrase 1 (Homo sapiens, UniProt P00915); assay: Inhibition of human recombinant carbonic anhydrase 1 preincubated for 15 mins by CO2 hydration stopped-flow assay
Carbonic anhydrase 12 = Carbonic anhydrase 12 (Homo sapiens, UniProt O43570); assay: Inhibition of human recombinant carbonic anhydrase 12 preincubated for 15 mins by CO2 hydration stopped-flow assay
Carbonic anhydrase 2 = Carbonic anhydrase 2 (Homo sapiens, UniProt P00918); assay: Inhibition of human recombinant carbonic anhydrase 2 preincubated for 15 mins by CO2 hydration stopped-flow assay
Carbonic anhydrase 9 = Carbonic anhydrase 9 (Homo sapiens, UniProt Q16790); assay: Inhibition of human recombinant carbonic anhydrase 9 preincubated for 15 mins by CO2 hydration stopped-flow assay

Chain of Carbonic anhydrase 1 (P00915 whole entry): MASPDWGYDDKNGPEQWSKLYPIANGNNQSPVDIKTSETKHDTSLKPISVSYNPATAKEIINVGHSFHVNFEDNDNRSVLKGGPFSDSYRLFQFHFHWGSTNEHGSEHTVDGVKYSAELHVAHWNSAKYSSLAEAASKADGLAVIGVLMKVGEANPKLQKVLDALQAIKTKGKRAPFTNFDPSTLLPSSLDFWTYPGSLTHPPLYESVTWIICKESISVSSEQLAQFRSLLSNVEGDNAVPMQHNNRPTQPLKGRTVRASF
Chain of Carbonic anhydrase 12 (O43570 whole entry): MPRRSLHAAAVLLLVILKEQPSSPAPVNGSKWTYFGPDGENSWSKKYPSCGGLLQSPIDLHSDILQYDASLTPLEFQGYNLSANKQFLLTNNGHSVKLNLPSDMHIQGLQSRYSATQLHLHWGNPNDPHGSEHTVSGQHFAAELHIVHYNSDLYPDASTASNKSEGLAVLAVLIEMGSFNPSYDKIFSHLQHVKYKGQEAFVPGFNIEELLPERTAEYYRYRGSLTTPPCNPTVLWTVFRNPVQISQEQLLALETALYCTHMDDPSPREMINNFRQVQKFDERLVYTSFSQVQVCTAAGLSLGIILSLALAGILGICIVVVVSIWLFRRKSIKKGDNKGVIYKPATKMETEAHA

| Ki (Carbonic anhydrase 1) [µM] | Ki (Carbonic anhydrase 12) [µM] | Ki (Carbonic anhydrase 2) [µM] | Ki (Carbonic anhydrase 9) [µM] | SMILES |
| --- | --- | --- | --- | --- |
| 3.98 | 4.31 | 2.3 | – | O/N=C/c1c(O)ccc(-c2ccc(O)cc2)c1Cl |
| 7.27 | 5.53 | 3.74 | 7.04 | O/N=C/c1c(O)ccc(-c2ccc(O)c(F)c2)c1Cl |
| 9.13 | 4.24 | 4.13 | 6.99 | O/N=C/c1cc(-c2ccc(O)c(F)c2)ccc1O |
| 7.88 | 7.45 | 6.35 | 6.43 | Cc1c(-c2ccc(O)cc2)ccc(/C=N/O)c1O |
| 7.65 | 3.14 | 5.87 | 7.72 | N#Cc1c(-c2ccc(O)cc2)ccc(/C=N/O)c1O |
| 7.57 | 4.77 | 4.96 | 7.08 | C/C(=N\O)c1ccc(-c2ccc(O)c(F)c2)c(Cl)c1O |
| 6.93 | 5.94 | 3.66 | 10.2 | COc1ccc(-c2ccc(O)c(/C=N/O)c2)cc1F |
| – | – | 340 | 0.944 | Oc1cc(F)cc(F)c1 |
| 6.9 | 4.53 | 3.32 | 10.2 | C/C(=N\O)c1ccc(-c2ccc(O)cc2)c(Cl)c1O |
